Columns and labels:
[1] = biological target: Protein kinase C eta type (Homo sapiens) (UniProt P24723); assay: Inhibition of human recombinant PKCH at 500 nM related to control ULK1
[2] = biological target: Casein kinase I isoform gamma-2 (Homo sapiens) (UniProt P78368); assay: Inhibition of human recombinant CK1g2 at 500 nM related to control ULK1
[3] = biological target: T1, Serine/threonine-protein kinase DCLK2 (Homo sapiens) (UniProt Q8N568); assay: Inhibition of human recombinant DCAMKL2 at 40 nM related to control ULK1
T1 sequence (whole entry): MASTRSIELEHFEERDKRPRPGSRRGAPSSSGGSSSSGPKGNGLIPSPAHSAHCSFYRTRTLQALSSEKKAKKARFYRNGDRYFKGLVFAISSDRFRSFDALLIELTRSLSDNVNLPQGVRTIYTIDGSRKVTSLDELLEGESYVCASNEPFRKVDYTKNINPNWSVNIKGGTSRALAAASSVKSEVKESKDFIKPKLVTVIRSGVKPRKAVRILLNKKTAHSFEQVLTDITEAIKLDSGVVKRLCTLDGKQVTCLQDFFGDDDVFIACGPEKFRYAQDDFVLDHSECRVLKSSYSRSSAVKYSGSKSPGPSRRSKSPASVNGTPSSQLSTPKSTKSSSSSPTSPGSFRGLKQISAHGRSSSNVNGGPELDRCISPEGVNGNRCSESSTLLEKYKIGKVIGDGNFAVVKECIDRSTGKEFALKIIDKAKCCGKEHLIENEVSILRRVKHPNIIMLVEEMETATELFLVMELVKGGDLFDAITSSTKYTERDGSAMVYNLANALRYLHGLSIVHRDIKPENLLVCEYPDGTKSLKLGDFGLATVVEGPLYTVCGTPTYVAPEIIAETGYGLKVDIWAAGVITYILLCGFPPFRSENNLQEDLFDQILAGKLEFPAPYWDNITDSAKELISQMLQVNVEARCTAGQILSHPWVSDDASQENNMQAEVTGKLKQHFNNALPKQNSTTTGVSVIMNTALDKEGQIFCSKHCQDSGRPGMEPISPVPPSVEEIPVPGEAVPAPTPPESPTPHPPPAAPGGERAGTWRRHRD

[4] = biological target: Glycogen synthase kinase-3 beta (Homo sapiens) (UniProt P49841); assay: Inhibition of human recombinant GSK3B at 40 nM in presence of ATP by radiometric assay relative to control
Glycogen synthase kinase-3 beta (Homo sapiens), sequence (P49841 whole entry, looked up): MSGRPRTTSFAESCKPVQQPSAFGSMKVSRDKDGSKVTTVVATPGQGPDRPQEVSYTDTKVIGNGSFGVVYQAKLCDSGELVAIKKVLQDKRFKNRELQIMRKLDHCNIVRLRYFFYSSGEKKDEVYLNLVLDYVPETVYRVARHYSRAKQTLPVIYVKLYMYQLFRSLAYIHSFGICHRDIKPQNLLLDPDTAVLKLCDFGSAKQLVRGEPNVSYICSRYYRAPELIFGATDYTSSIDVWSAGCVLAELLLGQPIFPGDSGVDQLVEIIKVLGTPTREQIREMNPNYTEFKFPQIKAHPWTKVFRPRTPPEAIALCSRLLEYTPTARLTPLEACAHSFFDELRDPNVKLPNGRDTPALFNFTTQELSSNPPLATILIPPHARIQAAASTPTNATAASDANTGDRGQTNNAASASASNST

[5] = biological target: T2, Ephrin type-B receptor 3 (Homo sapiens) (UniProt P54753); assay: Inhibition of human recombinant EphB3 at 40 nM related to control ULK1
T2 sequence (whole entry): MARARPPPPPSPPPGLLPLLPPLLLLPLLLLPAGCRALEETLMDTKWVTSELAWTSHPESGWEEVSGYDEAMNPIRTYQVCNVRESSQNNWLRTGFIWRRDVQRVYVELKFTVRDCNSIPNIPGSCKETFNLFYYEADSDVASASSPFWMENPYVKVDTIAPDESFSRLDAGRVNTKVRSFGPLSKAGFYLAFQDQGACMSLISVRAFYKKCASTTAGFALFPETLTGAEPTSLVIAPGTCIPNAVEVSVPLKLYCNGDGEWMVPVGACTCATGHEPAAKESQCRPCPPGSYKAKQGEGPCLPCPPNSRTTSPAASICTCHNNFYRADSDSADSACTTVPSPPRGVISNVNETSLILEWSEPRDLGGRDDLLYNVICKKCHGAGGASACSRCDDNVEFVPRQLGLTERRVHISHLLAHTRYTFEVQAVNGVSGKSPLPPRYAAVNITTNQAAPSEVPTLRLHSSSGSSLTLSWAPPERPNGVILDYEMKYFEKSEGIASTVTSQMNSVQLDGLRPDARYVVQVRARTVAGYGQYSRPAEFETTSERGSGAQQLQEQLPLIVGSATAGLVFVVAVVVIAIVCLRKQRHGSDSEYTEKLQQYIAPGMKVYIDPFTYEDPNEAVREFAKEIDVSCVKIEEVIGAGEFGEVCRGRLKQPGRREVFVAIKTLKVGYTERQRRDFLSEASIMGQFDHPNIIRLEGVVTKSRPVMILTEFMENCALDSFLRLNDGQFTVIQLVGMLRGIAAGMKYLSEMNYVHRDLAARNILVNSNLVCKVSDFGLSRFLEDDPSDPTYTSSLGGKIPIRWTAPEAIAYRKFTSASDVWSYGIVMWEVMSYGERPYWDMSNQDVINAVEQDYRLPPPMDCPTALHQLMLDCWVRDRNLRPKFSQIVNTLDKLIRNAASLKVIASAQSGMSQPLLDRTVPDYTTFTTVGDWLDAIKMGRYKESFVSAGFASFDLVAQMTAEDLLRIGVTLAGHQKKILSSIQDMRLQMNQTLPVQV

[6] = biological target: Serine/threonine-protein kinase PLK2 (Homo sapiens) (UniProt Q9NYY3); assay: Inhibition of human recombinant PLK2 at 40 nM in presence of ATP by radiometric assay relative to control
Serine/threonine-protein kinase PLK2 (Homo sapiens), sequence (Q9NYY3 whole entry, looked up): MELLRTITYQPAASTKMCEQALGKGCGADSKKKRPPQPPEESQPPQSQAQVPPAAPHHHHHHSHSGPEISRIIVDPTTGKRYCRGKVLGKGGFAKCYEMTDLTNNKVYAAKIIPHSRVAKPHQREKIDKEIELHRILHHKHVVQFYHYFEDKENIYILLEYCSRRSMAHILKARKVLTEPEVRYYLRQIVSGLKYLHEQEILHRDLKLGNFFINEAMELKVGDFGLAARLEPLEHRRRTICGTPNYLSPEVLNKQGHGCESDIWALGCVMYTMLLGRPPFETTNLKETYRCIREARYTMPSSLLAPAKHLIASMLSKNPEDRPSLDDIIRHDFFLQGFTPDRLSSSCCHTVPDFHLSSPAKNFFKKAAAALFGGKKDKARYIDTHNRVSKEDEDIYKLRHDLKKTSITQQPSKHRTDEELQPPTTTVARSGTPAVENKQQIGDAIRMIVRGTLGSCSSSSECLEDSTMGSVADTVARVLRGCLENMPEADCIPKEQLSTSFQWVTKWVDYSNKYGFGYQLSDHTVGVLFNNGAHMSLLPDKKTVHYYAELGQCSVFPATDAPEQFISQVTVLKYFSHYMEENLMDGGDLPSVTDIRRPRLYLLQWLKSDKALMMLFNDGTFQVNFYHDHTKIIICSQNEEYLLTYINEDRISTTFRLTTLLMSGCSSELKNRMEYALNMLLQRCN

Protein kinase C eta type (Homo sapiens), sequence (P24723 whole entry, canonical isoform): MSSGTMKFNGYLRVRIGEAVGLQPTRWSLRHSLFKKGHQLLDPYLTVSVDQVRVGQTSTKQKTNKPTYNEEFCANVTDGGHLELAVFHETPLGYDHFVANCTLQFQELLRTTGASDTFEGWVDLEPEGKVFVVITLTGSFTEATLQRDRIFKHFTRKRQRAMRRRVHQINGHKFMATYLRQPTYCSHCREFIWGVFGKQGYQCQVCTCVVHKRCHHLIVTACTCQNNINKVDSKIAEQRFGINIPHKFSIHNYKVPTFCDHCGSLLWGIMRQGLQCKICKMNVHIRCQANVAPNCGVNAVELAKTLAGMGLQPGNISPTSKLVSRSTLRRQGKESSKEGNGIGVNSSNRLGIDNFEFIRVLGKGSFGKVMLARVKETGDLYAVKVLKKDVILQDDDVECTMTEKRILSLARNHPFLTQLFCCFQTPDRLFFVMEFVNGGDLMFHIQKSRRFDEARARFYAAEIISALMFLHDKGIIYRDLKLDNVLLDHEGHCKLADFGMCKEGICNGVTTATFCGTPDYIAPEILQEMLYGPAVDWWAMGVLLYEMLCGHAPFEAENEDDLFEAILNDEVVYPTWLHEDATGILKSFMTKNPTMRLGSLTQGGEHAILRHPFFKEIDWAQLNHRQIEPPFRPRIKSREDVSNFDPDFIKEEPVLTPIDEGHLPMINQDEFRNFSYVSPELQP
Casein kinase I isoform gamma-2 (Homo sapiens), sequence (P78368 whole entry, looked up, canonical isoform): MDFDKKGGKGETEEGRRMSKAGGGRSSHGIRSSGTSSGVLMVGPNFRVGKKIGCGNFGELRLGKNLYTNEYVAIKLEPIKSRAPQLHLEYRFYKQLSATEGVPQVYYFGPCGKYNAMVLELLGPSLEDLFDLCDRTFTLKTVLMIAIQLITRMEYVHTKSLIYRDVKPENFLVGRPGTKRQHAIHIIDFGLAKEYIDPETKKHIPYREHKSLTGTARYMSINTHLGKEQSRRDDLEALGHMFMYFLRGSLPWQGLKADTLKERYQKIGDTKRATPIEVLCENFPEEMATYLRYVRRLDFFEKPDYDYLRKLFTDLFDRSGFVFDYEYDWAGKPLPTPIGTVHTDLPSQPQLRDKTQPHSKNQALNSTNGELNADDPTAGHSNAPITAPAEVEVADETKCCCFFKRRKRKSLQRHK

fold change (FC) [1]	fold change (FC) [2]	fold change (FC) [3]	inhibition [4] [%]	fold change (FC) [5]	inhibition [6] [%]	SMILES
0.09	0					CNC(=O)c1ccccc1Oc1nc(Nc2cc(OC)c(OC)c(OC)c2)ncc1Br
		0	0	0	3	O=C(N[C@@H](C1CC1)C(F)(F)F)c1cc(-c2cnn3cc(-c4ccc(F)cc4)cnc23)cs1

Reference: ChEMBL document CHEMBL5653631, “A Potent and Selective ULK1 Inhibitor Suppresses Autophagy and Sensitizes Cancer Cells to Nutrient Stress” (iScience, 2018)
